From US20250289804A1, “SUBSTITUTED INDOLE COMPOUNDS AND METHODS OF USE THEREOF” (NOVARTIS PHARMA AG, priority 2021, published 2025)
pIC50: −log10 of the molar value. Read-outs that look alike come from different tables or passages of the source.

Experiments:
human C3bBb = human C3bBb (Homo sapiens (Human), UniProt P00751); assay: Human C3bBb enzyme assay (C3a generation from C3, ELISA); format: biochemical; settings: for pIC50: read-out: Human C3b:Bb IC50 Avg
Experimental: Compounds disclosed herein were evaluated for their potency to inhibit human C3bBb in a biochemical assay. To generate active C3bBb complex in vitro, purified human C3b (Complement Technology, A114), CFB (Complement Technology, A135) and CFD (Complement Technology, A136) were mixed in a 1:1:1 ratio to a final concentration of 1 μM each in the C3bBb assay buffer (PBS pH 7.4, 100 μM NiCl2, 0.05% (w/v) CHAPS). The reaction mix was incubated at room temperature for 30 minutes on a rotating platform. […] On the day of the enzyme assay, a reaction mixture containing 3 nM C3bBb complex and 1 μM purified human C3 (Complement Technology, A113) was prepared in the C3bBb assay buffer. Compounds were serial diluted 3-fold in 100% DMSO for a 10-point dose-response curve. A 0.5 μL aliquot of diluted compound solution was transferred to a conical bottom 96-well plate, before 49.5 μL of the reaction mix was added to each well to initiate the reaction. The plate was incubated for 1 hour at room temperature. […] The generation of C3a from C3 by the C3bBb complex was measured using the MicroVue C3a Plus EIA ELISA kit (Quidel, A031). The concentration of C3a from each well was calculated using a standard curve. Percent inhibition values were generated using the baseline (C3 only) and the maximum control (DMSO instead of compound), and IC50 of each compound was calculated using 4-parameter logistic regression.

[1] = test system: MAC formation in normal human serum; assay: Human serum MAC formation assay (zymosan-coated plates, 50% normal human serum); settings: 50% normal human serum with EGTA, 37° C. 30 minutes
Experimental: MAC deposition assay using normal human serum was applied to evaluate compound potency under physiologically relevant conditions. Black Maxisorp plates (Thermo Fisher, 437111) were coated with preactivated zymosan (Complement Technology, B400) at 0.5 mg/mL in carbonate buffer (pH 9.5, Sigma, C3041) at room temperature overnight. Compounds were serial diluted 3-fold in 100% DMSO for a 10-point dose-response curve. Normal human serum (Complement Technology, NHS) was diluted to 50% (v/v) with the gelatin buffer (4.2 mM HEPES pH 7.4, 0.15 mM CaCl2, 141 mM NaCl, 4.5 mM MgCl2, 0.1% gelatin) containing 20 mM EGTA or 20 mM EDTA. In conical bottom 96-well plates, 1 μL compound and 99 μL of serum-EGTA were mixed. Serum-EDTA was used as baseline control. The serum-compound mixture was incubated at room temperature for 15 minutes before being transferred to the washed zymosan plate for complement activation at 37° C. for 30 minutes. The reaction was terminated by decanting the reaction mixture and adding blocking buffer (Thermo Fisher, 37539) for 20 minutes. MAC formation on the ELISA plate was detected using 0.2 μg/mL mouse anti-human C9 neoepitope monoclonal antibody (Thermo Fisher, MA5-33373) diluted in phosphate-buffered saline with 0.05% Tween-20 (PBST). A goat anti-mouse IgG-HRP antibody (Thermo Fisher, A16072) was used at 1:2000 in PBST as secondary antibody. After washing, the reaction was developed using QuantaBlu (Thermo Fisher, 15169) for 20 minutes at room temperature. The plates were read at 325 nm excitation and 420 nm emission wavelengths. Percent inhibition values were generated using the baseline (EDTA-serum) and the maximum control (EGTA-serum). An IC50 for each compound was calculated using 4-parameter logistic regression.

[2] = starred values: assay conducted with 1 nM C3b:Bb enzyme
[3] = 3 nM C3bBb complex, 1 μM human C3, 1 hour room temperature

human C3bBb, sequence (P00751 260-764): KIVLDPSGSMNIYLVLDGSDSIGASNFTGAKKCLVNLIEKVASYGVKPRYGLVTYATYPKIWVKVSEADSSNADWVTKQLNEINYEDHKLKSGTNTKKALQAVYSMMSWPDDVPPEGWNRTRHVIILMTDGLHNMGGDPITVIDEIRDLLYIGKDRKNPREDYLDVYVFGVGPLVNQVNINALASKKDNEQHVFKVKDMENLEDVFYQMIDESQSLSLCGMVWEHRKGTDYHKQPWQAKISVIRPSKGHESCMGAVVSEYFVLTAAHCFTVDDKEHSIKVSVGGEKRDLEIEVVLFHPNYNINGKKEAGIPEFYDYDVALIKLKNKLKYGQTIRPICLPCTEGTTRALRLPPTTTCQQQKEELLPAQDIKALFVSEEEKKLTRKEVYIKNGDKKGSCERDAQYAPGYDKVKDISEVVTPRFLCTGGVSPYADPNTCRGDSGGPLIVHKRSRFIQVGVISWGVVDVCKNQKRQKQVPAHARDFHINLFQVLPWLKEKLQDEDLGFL
human C3bBb, sequence (P01024 23-667 partner): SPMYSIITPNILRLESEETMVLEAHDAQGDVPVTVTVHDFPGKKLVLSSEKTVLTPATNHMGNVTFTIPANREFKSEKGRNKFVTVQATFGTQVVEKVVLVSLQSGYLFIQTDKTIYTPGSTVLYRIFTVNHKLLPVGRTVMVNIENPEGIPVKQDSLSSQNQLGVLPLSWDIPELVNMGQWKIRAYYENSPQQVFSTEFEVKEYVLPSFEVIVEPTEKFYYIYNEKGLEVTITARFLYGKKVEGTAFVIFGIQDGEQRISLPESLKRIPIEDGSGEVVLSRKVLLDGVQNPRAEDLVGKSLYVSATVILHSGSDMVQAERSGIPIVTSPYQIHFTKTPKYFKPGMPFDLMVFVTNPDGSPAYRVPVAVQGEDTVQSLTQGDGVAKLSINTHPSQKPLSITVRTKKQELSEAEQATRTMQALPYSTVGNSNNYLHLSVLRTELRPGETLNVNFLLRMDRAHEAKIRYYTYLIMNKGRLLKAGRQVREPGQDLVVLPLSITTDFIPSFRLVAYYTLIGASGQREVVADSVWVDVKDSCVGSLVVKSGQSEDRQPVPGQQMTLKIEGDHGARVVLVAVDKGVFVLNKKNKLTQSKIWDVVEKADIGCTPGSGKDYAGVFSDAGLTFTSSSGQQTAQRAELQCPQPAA
human C3bBb, sequence (P01024 749-1663 partner): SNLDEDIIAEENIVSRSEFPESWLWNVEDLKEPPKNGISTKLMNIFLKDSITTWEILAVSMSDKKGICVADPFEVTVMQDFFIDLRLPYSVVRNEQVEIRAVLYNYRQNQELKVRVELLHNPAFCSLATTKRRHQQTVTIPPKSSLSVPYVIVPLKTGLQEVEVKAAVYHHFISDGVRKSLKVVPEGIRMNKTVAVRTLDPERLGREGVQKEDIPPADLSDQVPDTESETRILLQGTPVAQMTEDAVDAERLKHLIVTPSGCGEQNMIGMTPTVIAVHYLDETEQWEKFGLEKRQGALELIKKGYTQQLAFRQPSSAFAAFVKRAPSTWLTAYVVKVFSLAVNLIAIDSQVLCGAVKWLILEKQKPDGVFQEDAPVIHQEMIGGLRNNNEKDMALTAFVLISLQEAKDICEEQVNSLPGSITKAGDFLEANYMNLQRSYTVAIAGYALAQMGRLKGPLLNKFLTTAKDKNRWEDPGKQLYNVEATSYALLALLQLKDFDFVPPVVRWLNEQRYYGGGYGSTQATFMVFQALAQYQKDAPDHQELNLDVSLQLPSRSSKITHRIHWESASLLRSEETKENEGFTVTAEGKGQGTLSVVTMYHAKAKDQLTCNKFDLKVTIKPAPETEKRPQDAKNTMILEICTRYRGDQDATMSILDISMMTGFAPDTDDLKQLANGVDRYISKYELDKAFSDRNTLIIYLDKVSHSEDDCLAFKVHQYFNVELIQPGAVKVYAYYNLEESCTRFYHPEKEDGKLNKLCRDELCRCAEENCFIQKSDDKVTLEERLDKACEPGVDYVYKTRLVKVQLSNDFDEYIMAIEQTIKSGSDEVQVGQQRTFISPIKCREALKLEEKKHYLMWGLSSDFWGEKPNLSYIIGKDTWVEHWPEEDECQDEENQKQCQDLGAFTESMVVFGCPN

| SMILES | pIC50 (human C3bBb; [2]) | pIC50 [1] | pIC50 (human C3bBb; [3]) | IC50 (human C3bBb; Human C3b:Bb IC50 Avg (nM), 3 nM C3bBb complex, 1 μM human C3, 1 hour room temperature) [nM] |
| --- | --- | --- | --- | --- |
| COc1cc(C)c2[nH]ccc2c1CN1CC[C@H](C2CCC2)C[C@H]1c1ccc(C(=O)O)cc1 (mixture of isomers) [Example 43, 4-((2S,4S)-4-cyclobutyl-1-((5-methoxy-7-methyl-1H-indol-4-yl)methyl)piperidin-2-yl)benzoic acid and 4-((2S,4R)-4-cyclobutyl-1-((5-methoxy-7-methyl-1H-indol-4-yl)methyl)piperidin-2-yl)benzoic acid] | 7.00 to 7.30 | < 6.30 |  |  |
| COc1cc(C)c2[nH]ccc2c1CN1CC[C@H](n2cc(Br)cn2)C[C@H]1c1ccc(C(=O)O)cc1 (racemic) [Example 2, (±)-trans-4-(4-(4-bromo-1H-pyrazol-1-yl)-1-((5-methoxy-7-methyl-1H-indol-4-yl)methyl)piperidin-2-yl)benzoic acid] |  | 6.30 to 6.52 | 7.00 to 7.30 |  |
| COc1cc(C)c2[nH]ccc2c1CN1CC[C@H](n2cncn2)C[C@H]1c1ccc(C(=O)O)cc1 (racemic) [Example 3, (±)-trans-4-(1-((5-methoxy-7-methyl-1H-indol-4-yl)methyl)-4-(1H-1,2,4-triazol-1-yl)piperidin-2-yl)benzoic acid] |  | < 6.30 | 7.60 to 8.00 |  |
| COc1cc(C)c2[nH]ccc2c1CN1CC[C@H](n2cnc(C(F)(F)F)n2)C[C@H]1c1ccc(C(=O)O)cc1 (racemic) [Example 5, (±)-trans-4-(1-((5-methoxy-7-methyl-1H-indol-4-yl)methyl)-4-(3-(trifluoromethyl)-1H-1,2,4-triazol-1-yl)piperidin-2-yl)benzoic acid] |  | < 6.30 |  |  |
| COc1cc(C)c2[nH]ccc2c1CN1CC[C@H](n2cc3ccccc3n2)C[C@H]1c1ccc(C(=O)O)cc1 (racemic) [Example 6, (±)-trans-4-(4-(2H-indazol-2-yl)-1-((5-methoxy-7-methyl-1H-indol-4-yl)methyl)piperidin-2-yl)benzoic acid] |  | < 6.30 |  |  |
| COc1cc(C)c2[nH]ccc2c1CN1CC[C@H](n2cc(C(F)F)cn2)C[C@H]1c1ccc(C(=O)O)cc1 (racemic) [Example 7, (±)-trans-4-(4-(4-(difluoromethyl)-1H-pyrazol-1-yl)-1-((5-methoxy-7-methyl-1H-indol-4-yl)methyl)piperidin-2-yl)benzoic acid] | > 8.00 | 6.70 to 7.00 |  |  |
| COc1cc(C)c2[nH]ccc2c1CN1CC[C@H](n2cccn2)C[C@H]1c1ccc(C(=O)O)cc1 (racemic) [Example 9, (±)-trans-4-(1-((5-methoxy-7-methyl-1H-indol-4-yl)methyl)-4-(1H-pyrazol-1-yl)piperidin-2-yl)benzoic acid] |  | < 6.30 | < 7.00 |  |
| COc1cc(C)c2[nH]ccc2c1CN1CC[C@H](n2cc(S(C)(=O)=O)cn2)C[C@H]1c1ccc(C(=O)O)cc1 (racemic) [Example 11, (±)-trans-4-(1-((5-methoxy-7-methyl-1H-indol-4-yl)methyl)-4-(4-methylsulfonyl)-1H-pyrazol-1-yl)piperidin-2-yl)benzoic acid] |  | < 6.30 | < 7.00 |  |
| COc1cc(C)c2[nH]ccc2c1CN1CC[C@H](N2CCCC2=O)C[C@H]1c1ccc(C(=O)O)cc1 (racemic) [Example 12, (±)-trans-4-(1-((5-methoxy-7-methyl-1H-indol-4-yl)methyl)-4-(2-oxopyrrolidin-1-yl)piperidin-2-yl)benzoic acid] |  | 6.30 to 6.52 |  | > 100 |
| COc1cc(C)c2[nH]ccc2c1CN1CC[C@H](NCC(F)(F)F)C[C@H]1c1ccc(C(=O)O)cc1 (racemic) [Example 14, (+)-trans-4-(1-((5-methoxy-7-methyl-1H-indol-4-yl)methyl)-4-((2,2,2-trifluoroethyl)amino)piperidin-2-yl)benzoic acid] |  | 6.70 to 7.00 | 7.60 to 8.00 |  |
| COc1cc(C)c2[nH]ccc2c1CN1CC[C@H](NS(N)(=O)=O)C[C@H]1c1ccc(C(=O)O)cc1 (racemic) [Example 16, (±)-trans-4-(1-((5-methoxy-7-methyl-1H-indol-4-yl)methyl)-4-(sulfamoylamino)piperidin-2-yl)benzoic acid] |  | 6.30 to 6.52 | < 7.00 |  |
| COc1cc(C)c2[nH]ccc2c1CN1CC[C@H](NC2COC2)C[C@H]1c1ccc(C(=O)O)cc1 (racemic) [Example 17, (+)-trans-4-(1-((5-methoxy-7-methyl-1H-indol-4-yl)methyl)-4-(oxetan-3-ylamino)piperidin-2-yl)benzoic acid] |  | 6.70 to 7.00 | 7.60 to 8.00 |  |
| COc1cc(C)c2[nH]ccc2c1CN1CCC2(COC2)CC1c1ccc(C(=O)O)cc1 (racemic) [Example 31, (±)-4-(7-((5-methoxy-7-methyl-1H-indol-4-yl)methyl)-2-oxa-7-azaspiro[3.5]nonan-6-yl)benzoic acid] | > 8.00 | < 6.30 |  |  |
| COc1cc(C)c2[nH]ccc2c1CN1CC[C@H](c2ccccc2)C[C@H]1c1ccc(C(=O)O)cc1 (racemic) [Example 37, (±)-trans-4-(1-((5-methoxy-7-methyl-1H-indol-4-yl)methyl)-4-phenylpiperidin-2-yl)benzoic acid] |  | < 6.30 | < 7.00 |  |
| COc1cc(C)c2[nH]ccc2c1CN1CC2(CCCC2)C1c1ccc(C(=O)O)cc1 (racemic) [Example 39, (±)-4-(2-((5-methoxy-7-methyl-1H-indol-4-yl)methyl)-2-azaspiro[3.4]octan-1-yl)benzoic acid] |  | 6.30 to 6.52 | < 7.00 |  |
| COc1cc(C)c2[nH]ccc2c1CN1CC[C@H](N2CC(C(F)(F)F)C2)C[C@H]1c1ccc(C(=O)O)cc1 (racemic) [Example 71, (±)-trans-4-1-((5-methoxy-7-methyl-1H-indol-4-yl)methyl)-4-(3-(trifluoromethyl)azetidin-1-yl)piperidin-2-yl)benzoic acid] | > 8.00 | 6.30 to 6.52 |  |  |
| COc1cc(C)c2[nH]ccc2c1CN1CC[C@@]2(CCCO2)C[C@H]1c1ccc(C(=O)O)cc1 (single isomer, unassigned) [Example 33, 4-((5S,7S)-8-((5-methoxy-7-methyl-1H-indol-4-yl)methyl)-1-oxa-8-azaspiro[4.5]decan-7-yl)benzoic acid or 4-((5R,7S)-8-((5-methoxy-7-methyl-1H-indol-4-yl)methyl)-1-oxa-8-azaspiro[4.5]decan-7-yl)benzoic acid] | < 7.00 | < 6.30 |  |  |
| COc1cc(C)c2[nH]ccc2c1CN1CC[C@@]2(CCOC2)C[C@H]1c1ccc(C(=O)O)cc1 (single isomer, unassigned) [Example 34, 4-((5S,7S)-8-((5-methoxy-7-methyl-1H-indol-4-yl)methyl)-2-oxa-8-azaspiro[4.5]decan-7-yl)benzoic acid or 4-((5R,7S)-8-((5-methoxy-7-methyl-1H-indol-4-yl)methyl)-2-oxa-8-azaspiro[4.5]decan-7-yl)benzoic acid] | > 8.00 | 6.70 to 7.00 |  |  |
| COc1cc(C)c2[nH]ccc2c1CN1CC[C@H](NCC2(C(F)(F)F)CC2)C[C@H]1c1ccc(C(=O)O)cc1 [Example 27, 4-((2S,4S)-1-((5-methoxy-7-methyl-1H-indol-4-yl)methyl)-4-(((1-(trifluoromethyl)cyclopropyl)methyl)amino)piperidin-2-yl)benzoic acid] |  | 6.70 to 7.00 |  |  |
| COc1cc(C)c2[nH]ccc2c1CN1CC[C@H](C2CC2)C[C@H]1c1ccc(C(=O)O)cc1 [Example 41, 4-((2S,4S)-4-cyclopropyl-1-((5-methoxy-7-methyl-1H-indol-4-yl)methyl)piperidin-2-yl)benzoic acid] |  | 6.70 to 7.00 |  |  |
